Measurements published in patent US20170042193A1, “Pet Food Compositions Having Antimicrobial Activity” (priority 2010, published 2017).
Like-named read-outs stand apart in the source and are kept apart here.

How the values were obtained:
Format in all cases: cell-based
[1] = test system: Salmonella (S. aarhus, S. muenster E1 and S. worthington); parameters: key to Salmonella growth or inhibition (MIC test): −: negative sign means inhibition; +: positive sign denotes growth
Protocol: The minimum inhibitory concentration (MIC) of an antimicrobial ingredient is defined as the maximum dilution of the product that will still inhibit the growth of Salmonella. Serial dilutions (0-3%, except for oregano 0-0.3%) were made of the AMI in bacterial growth media and poured in test tubes. The test organisms (S. aarhus, S. muenster E1 and S. worthington) were then added to the dilutions of the AMI ingredients to a final concentration of 10^6 or 10^3 cfu/g, incubated overnight at 30° C., and scored for growth by turbidity or plate counts.
Minimum Inhibitory Concentration was conducted for 10^3 and 10^6 cfu/g Salmonella. Results reported as negative sign means inhibition, while positive sign denotes growth.

[2] = test system: Salmonella (S. aarhus, S. muenster E1 & S. worthington)
Description: This test is typically used for antibiotic sensitivity in bacteria and was adapted to measure Salmonella growth suppression by ingredients with potential antimicrobial (AMI) activity. Discs of filter paper, approximately 5 mm in diameter, were soaked in an AMI at 1%, 2%, and 3%, except for oregano, which was soaked at 0.1%, 0.2% and 0.4% solution and placed on a Petri dish with standard methods agar with tetraphenyltetrazolium (TTC) that has been smeared with a standardized suspension of Salmonella (S. aarhus, S. muenster E1 & S. worthington). Efficacy of the AMI was validated by measuring how closely the Salmonella cultures grew with respect to the saturated filter paper.
Ingredients were screened for antimicrobial activity using the Disc Diffusion Test. Solutions of 1%, 2%, and 3% were prepared for each of these ingredients, except for oregano, which was prepared at 0.1%, 0.2%, and 0.4%. Soaking of the disks, placing them on a Standard Methods agar plate with TTC smeared with Salmonella and overnight incubation were done as discussed above. Efficacy of these ingredients was determined by measuring the clear zones (mm) around the disks (Table 2).

[3] = test system: Salmonella (S. aarhus, S. muenster E1 & S. worthington); remark: listed apart in the source
Protocol: The kibble diffusion test has similar principles as the disk diffusion method. […] […] Efficacy of the AMI was validated by measuring how closely the Salmonella cultures grew with respect to the saturated kibbles.
Commercial canine and feline adult pet food compositions in the form of kibbles were coated with potential AMIs. […] After incubation overnight at 30° C., plates were analyzed for presence of clear zones around the kibbles.

[4] = 10^3 cfu/g Salmonella, antimicrobial level 0.03%
[5] = 10^3 cfu/g Salmonella, antimicrobial level 0.15%
[6] = 10^3 cfu/g Salmonella, antimicrobial level 0.3%
[7] = 10^3 cfu/g Salmonella, antimicrobial level 0.9%
[8] = 10^3 cfu/g Salmonella, antimicrobial level 1.5%
[9] = 10^3 cfu/g Salmonella, antimicrobial level 2.1%
[10] = 10^3 cfu/g Salmonella, antimicrobial level 3%
[11] = 10^3 cfu/g Salmonella, antimicrobial level […]
[12] = 10^6 cfu/g Salmonella, antimicrobial level 0.03%
[13] = 10^6 cfu/g Salmonella, antimicrobial level 0.15%
[14] = 10^6 cfu/g Salmonella, antimicrobial level 0.3%
[15] = 10^6 cfu/g Salmonella, antimicrobial level 0.9%
[16] = 10^6 cfu/g Salmonella, antimicrobial level 1.5%
[17] = 10^6 cfu/g Salmonella, antimicrobial level 2.1%
[18] = 10^6 cfu/g Salmonella, antimicrobial level 3%
[19] = 10^6 cfu/g Salmonella, antimicrobial level […]

SMILES	Salmonella growth or inhibition (MIC test) [1, 4]	Salmonella growth or inhibition (MIC test) [1, 5]	Salmonella growth or inhibition (MIC test) [1, 6]	Salmonella growth or inhibition (MIC test) [1, 7]	Salmonella growth or inhibition (MIC test) [1, 8]	Salmonella growth or inhibition (MIC test) [1, 9]	Salmonella growth or inhibition (MIC test) [1, 10]	Salmonella growth or inhibition (MIC test) [1, 11]	Salmonella growth or inhibition (MIC test) [1, 12]	Salmonella growth or inhibition (MIC test) [1, 13]	Salmonella growth or inhibition (MIC test) [1, 14]	Salmonella growth or inhibition (MIC test) [1, 15]	Salmonella growth or inhibition (MIC test) [1, 16]	Salmonella growth or inhibition (MIC test) [1, 17]	Salmonella growth or inhibition (MIC test) [1, 18]	Salmonella growth or inhibition (MIC test) [1, 19]	other results
CCCCCCCCCCCC(=O)N[C@@H](CCCN=C(N)N)C(=O)OCC [Lauric Arginate]	−	−	−	−	−	−	−	−	−	−	−	−	−	−	−	−	MIC needed to inhibit Salmonella ([1]; 10^3 and 10^6 cfu/g Salmonella): 0.15%
O=P(O)(O)O [Inorganic Acid (Phosphoric acid), Phosphoric Acid]	+	+	+	−	−	−	−	−	+	+	+	−	−	−	−	−	clear zone around disk, Partial ([2]; R 1 (*3 replicates)): 9.33 mm; clear zone around disk, Total ([2]; R 1 (*3 replicates)): 16.67 mm; clear zone around disk, Partial ([2]; R 2): 14.33 mm; clear zone around disk, Total ([2]; R 2): 24.0 mm; clear zone around disk, Partial ([2]; R 3): 21.0 mm; clear zone around disk, Total ([2]; R 3): 28.33 mm; Antimicrobial activity against Salmonella, decreasing order ([2]; order printed: Phosphoric acid>Phenols, pH 4.25-4.85>Oleoresin Oregano>92% Sodium Lactate and 6% Sodium Diacetate>Phenols, pH 4.8-6.0): Antimicrobial activity against Salmonella was observed; inhibition of Salmonella, clear zone around the kibbles ([3]; coated kibbles, overnight at 30° C.): inhibited Salmonella; Zone of Inhibition-Diameter, Mean ([3]; kibble coated, 3%): 8 mm; Zone of Inhibition-Diameter, REP I Plate 1 ([3]; kibble coated, 3%): 9 mm; Zone of Inhibition-Diameter, REP I Plate 2 ([3]; kibble coated, 3%): 7 mm; Zone of Inhibition-Diameter, REP II Plate 1 ([3]; kibble coated, 3%): 7 mm; Zone of Inhibition-Diameter, REP II Plate 2 ([3]; kibble coated, 3%): 9 mm; Zone of Inhibition-Diameter, REP III Plate 1 ([3]; kibble coated, 3%): 9 mm; Zone of Inhibition-Diameter, REP III Plate 2 ([3]; kibble coated, 3%): 7 mm
